The IC50 is the concentration that inhibits the measured activity by half. Broadly, the EC50 is the concentration at which the effect is half-maximal.

We go through 13 compounds from patent US20260364080A1, “PYRAZOLO-PYRIMIDINONE COMPOUNDS FOR USE IN METHODS OF INHIBITING WEE1 A KINASE” (Acrivon Therapeutics, Inc., priority 2023, published 2026).

In test [1] the target is T1, Myt1 kinase (recombinant PMYT-1) (Homo sapiens, UniProt Q99640).
T1 construct: full length PMYT-1 was expressed by baculovirus in insect cells; purchased Invitrogen A30984; host or cells: insect cells (baculovirus)
T1 sequence (Q99640 1-499): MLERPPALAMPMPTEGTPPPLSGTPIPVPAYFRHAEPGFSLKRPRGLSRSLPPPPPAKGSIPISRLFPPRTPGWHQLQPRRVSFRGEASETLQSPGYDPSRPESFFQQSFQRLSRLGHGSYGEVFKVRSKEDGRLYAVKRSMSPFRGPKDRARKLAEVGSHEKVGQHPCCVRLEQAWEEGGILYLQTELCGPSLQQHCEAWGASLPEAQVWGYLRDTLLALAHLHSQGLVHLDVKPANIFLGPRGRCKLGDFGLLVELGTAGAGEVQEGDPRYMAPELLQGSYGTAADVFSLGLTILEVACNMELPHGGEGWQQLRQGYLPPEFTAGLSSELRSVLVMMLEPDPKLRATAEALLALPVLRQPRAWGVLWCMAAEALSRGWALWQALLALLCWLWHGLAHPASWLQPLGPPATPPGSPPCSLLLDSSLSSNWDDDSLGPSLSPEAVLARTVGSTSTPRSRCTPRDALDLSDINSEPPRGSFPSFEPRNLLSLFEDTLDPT
Nature of the test: Myt1 kinase binding assay (LanthaScreen Eu Kinase Binding Assay). As to conditions: 3 nM tracer 178, 2.5 nM PMYT-1, 1 nM Eu-labeled antibody; read-out: Myt1 kinase Binding IC50. The gist of the method: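 Compound binding to Myt1 kinase was assessed using the LanthaScreen Eu Kinase Binding Assay. This europium-based binding format was applied to quantify how strongly each compound bound to the Myt1 enzyme, and the binding affinity was reported for each compound as an IC50 value.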

The target of test [2] is T2, Myt1 kinase (CDK1 Thr14 phosphorylation in DAOY medulloblastoma cells) (Homo sapiens, UniProt Q99640).
T2 construct: pCDK1 Thr14 AlphaLISA read-out
T2 sequence (Q99640 1-499): T1 sequence (Q99640 1-499)
Nature of the test: AlphaLISA assay, Myt1 kinase target engagement (phospho-CDK1 Thr14) in DAOY cells. The following applies: 4 h treatment, read-out: CDK1 Thr14 Phosphorylation EC50. The format is cell-based. The procedure: Each of an ACHN renal cell carcinoma cell line (ATCC) and a DAOY medulloblastoma cell line, and an A427 lung cancer line were cultured in Minimum Essential Medium Eagle supplemented with 10% fetal calf serum (Sigma), 1% Penicillin-Streptomycin and 10 mM HEPES buffer (HyClone). Cell cultures were kept in a humidified incubator at 37 °C and 5% CO2. Cells were routinely tested for Mycoplasma contamination.
For target engagement assessment of Myt1 kinase inhibition, quantification of Cdk1 phosphorylated on threonine 14 was detected using the AlphaLISA® SureFire® Ultra™ Human Phospho-CDK1 (Thr14) assay (Perkin Elmer). DAOY or ACHN cells were seeded into tissue culture treated 96-well plates (VWR) to a density of 10,000 or 20,000 cells per well respectively. 24 h post seeding cells were treated for 4 h with compounds at concentrations ranging from 7 to 5000 nM. Cells were washed with PBS and lysed in 50 μl AlphaLISA lysis buffer before freezing at −80 C. Ten ul of the lysate was transferred to 384 well plates and incubated with AlphaLISA donor and acceptor beads according to the manufacturer's instructions. Dose response curves and EC50 values were calculated and visualized using GraphPad Prism version 9. Target engagement for Myt1 kinase can also be measured using the same AlphaLISA assay in OVCAR3 cells, an ovarian cancer cell line. NIH:OVCAR-3 (OVCAR3) cells are cultured in RPMI-1640 medium supplemented with 0.01 mg/ml insulin, 20% FBS, 1% Penicillin-Streptomycin and 10 mM HEPES buffer. 14,000 cells per well are seeded into 96 well tissue culture plates in full medium. Twenty-four hours post seeding, cells are treated with compound for 4 hours at concentrations ranging from 0.017 nM to 1000 nM.
For orientation: Alpha assays give light when donor and acceptor beads are brought close together.

Test [3] deals with T3, Wee1A kinase (CDK1 Tyr15 phosphorylation in ACHN renal cell carcinoma cells) (Homo sapiens, UniProt P30291).
T3 construct: pCDK1 Tyr15 immunofluorescence read-out
Nature of the test: High-content imaging of pCdk1 Y15, Wee1A kinase target engagement in ACHN cells. The format is cell-based. The following applies: 4 h treatment, nuclear positivity for pCdk1 Y15 vs DMSO control, read-out: CDK1 Tyr15 Phosphorylation EC50. The gist of the method:
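EC50 values come from the per-well fraction of cells with nuclear pCdk1 Y15 staining, normalised to DMSO control, by automated immunofluorescence imaging. Cells were ACHN renal carcinoma, treated 4 h with compound at 7–5,000 nM or 0.3–200 nM.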

The next test concerns ACHN cells. Nature of the test: Cell Titer Glo viability assay, ACHN cells. The format is cell-based. As to conditions: Homo sapiens, 144 h, absolute EC50. The gist of the method:
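Cells grown in MEM with 10% FCS were seeded at 500 (A427), 400 (ACHN) or 250 (DAOY) per well and treated the next day with compound at 17 to 10 000 nM. Viability relative to untreated control was read at 144 h by CellTiter-Glo 2.0.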
(Cellular ATP, detected with luciferase, serves as a proxy for viable cell number.)

The target in test [4] is T4, recombinant human Wee1A kinase (Homo sapiens, UniProt P30291).
T4 construct: full length Wee1 kinase was expressed by baculovirus in insect cells; purchased Invitrogen PV3817; host or cells: insect cells (baculovirus)
The test is described as follows: Wee1A kinase binding assay (LanthaScreen Eu time-resolved FRET). The following applies: 30 nM tracer 178, 5 nM Wee1A kinase, 2 nM Eu-labeled antibody; 60 minutes at room temperature; read-out: Wee1A kinase Binding IC50. The gist of the method: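 Full-length, baculovirus-expressed GST-tagged Wee1A (5 nM) was mixed with 2 nM Eu-anti-GST antibody, 30 nM kinase tracer 178 and compound (1% DMSO). Buffer was 50 mM HEPES pH 7.5, 10 mM MgCl2, 1 mM EGTA, 0.01% Brij-35, incubated 60 min at room temperature. TR-FRET 665/615 nm emission ratios from duplicates were curve-fitted.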
(In general: TR-FRET usually uses a lanthanide donor and a delayed reading to cut background.)

Some results are limits rather than exact numbers.

T4 sequence (P30291 whole entry): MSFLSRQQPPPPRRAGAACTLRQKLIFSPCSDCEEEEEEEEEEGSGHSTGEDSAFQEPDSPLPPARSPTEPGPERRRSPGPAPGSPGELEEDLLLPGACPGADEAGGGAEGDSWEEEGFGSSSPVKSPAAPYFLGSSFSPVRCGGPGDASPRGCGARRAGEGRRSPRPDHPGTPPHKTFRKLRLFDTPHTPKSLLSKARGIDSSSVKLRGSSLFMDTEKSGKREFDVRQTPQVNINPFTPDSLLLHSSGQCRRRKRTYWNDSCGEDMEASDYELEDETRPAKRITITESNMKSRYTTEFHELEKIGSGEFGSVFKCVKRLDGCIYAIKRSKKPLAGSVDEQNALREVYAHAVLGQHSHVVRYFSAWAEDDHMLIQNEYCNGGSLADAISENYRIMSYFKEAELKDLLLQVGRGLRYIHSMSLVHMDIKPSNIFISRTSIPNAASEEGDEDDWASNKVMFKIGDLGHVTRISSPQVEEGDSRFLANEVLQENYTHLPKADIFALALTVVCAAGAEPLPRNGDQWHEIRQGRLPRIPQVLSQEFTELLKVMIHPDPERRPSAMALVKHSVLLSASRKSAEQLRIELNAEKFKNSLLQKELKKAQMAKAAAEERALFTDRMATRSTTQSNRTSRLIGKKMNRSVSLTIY
T3 sequence (P30291 whole entry): as above

Consider `C=CCn1c(=O)c2cnc(Nc3ccc(Cl)cc3)nc2n1-c1cccc(NC2CCN(C)CC2)n1` [Compound 138, 2-allyl-6-((4-chlorophenyl)amino)-1-(6-((1-methylpiperidin-4-yl)amino)pyridin-2-yl)-1,2-dihydro-3H-pyrazolo[3,4-d]pyrimidin-3-one], for which the IC50 in test [1] was 100 to 500 nM; in test [4], below 10 nM. The results for the EC50 (in test [2]; in test [3]; in the test with ACHN cells) were above 1000 nM, below 100 nM and at most 100 nM, respectively.

`C=CCn1c(=O)c2cnc(Nc3ccc(Cl)cc3)nc2n1-c1cccc(O[C@H]2CCNC2)n1` [Compound 145, 1-{6-[(S)-3-pyrrolidinyloxy]-2-pyridyl}-2-allyl-6-(p-chlorophenylamino)-1,2-dihydro-3H-1,2,5,7-tetraazainden-3-one]: the values for the half-maximal inhibitory concentration (IC50) in test [1] and in test [4] were 20 to 100 nM and below 10 nM, respectively. Also, the results for the EC50 (in test [2]; in test [3]; with ACHN cells) were 200 to 500 nM, 100 to 500 nM and 100 to 500 nM, respectively.

Turning to `C=CCn1c(=O)c2cnc(Nc3ccc4nccnc4c3)nc2n1-c1cccc(OC2CCN(C)CC2)n1` [Compound 241, 2-allyl-1-[6-(1-methyl-4-piperidyloxy)-2-pyridyl]-6-(6-quinoxalinylamino)-1,2-dihydro-3H-1,2,5,7-tetraazainden-3-one], the IC50 was below 20 nM in test [1] and below 10 nM in test [4]. In addition, the EC50 is 200 to 500 nM in test [2] and at most 100 nM in the test on ACHN cells.

As to `C=CCn1c(=O)c2cnc(Nc3ccc(OCC(F)(F)F)cc3)nc2n1-c1ccnc(OC2CCN(C)CC2)n1` [Compound 253, 2-allyl-1-(2-((1-methylpiperidin-4-yl)oxy)pyrimidin-4-yl)-6-((4-(2,2,2-trifluoroethoxy)phenyl)amino)-1,2-dihydro-3H-pyrazolo[3,4-d]pyrimidin-3-one], the IC50 in test [1] was 20 to 100 nM; in test [4], below 10 nM. Besides, the EC50 in test [2] is above 1000 nM; in test [3] it was below 100 nM; with ACHN cells, at most 100 nM.

On to `C=CCn1c(=O)c2cnc(Nc3ccc4c(c3)OCO4)nc2n1-c1cccc(NC2CCN(C)CC2)n1` [Compound 196, 2-allyl-6-(2H-1,3-benzodioxol-5-ylamino)-1-[6-(1-methyl-4-piperidylamino)-2-pyridyl]-1,2-dihydro-3H-1,2,5,7-tetraazainden-3-one], for which the IC50 is 100 to 500 nM in test [1] and below 10 nM in test [4]. The EC50 in test [2] is above 1000 nM; in test [3] it was below 100 nM; in the test on ACHN cells, at most 100 nM.

As to `C=CCn1c(=O)c2cnc(Nc3ccc4c(cnn4C(C)C)c3)nc2n1-c1cccc(OC2CCNCC2)n1` [Compound 265, 2-allyl-6-(1-isopropyl-1H-indazol-5-ylamino)-1-[6-(4-piperidyloxy)-2-pyridyl]-1,2-dihydro-3H-1,2,5,7-tetraazainden-3-one], the IC50 is below 20 nM in test [1] and below 10 nM in test [4]. Moreover, the EC50 in test [2] is 200 to 500 nM; in test [3] it was below 100 nM.

For `C=CCn1c(=O)c2cnc(Nc3cnn(C)c3)nc2n1-c1cccc(OC2CC3CCCC(C2)N3C)n1` (centres unmarked) [Compound 194, 2-allyl-1-{6-(9-methyl-9-azabicyclo[3.3.1]non-3-yloxy)-2-pyridyl}-6-(1-methyl-4-pyrazolylamino)-1,2-dihydro-3H-1,2,5,7-tetraazainden-3-one], the IC50 in test [1] was below 20 nM; in test [4] it was below 10 nM. For the same compound, the EC50 in test [2] is above 1000 nM; in test [3] it was 100 to 500 nM.

For the compound `C=CCn1c(=O)c2cnc(Nc3ccc4cnoc4c3)nc2n1-c1cccc(OC2CCN(C)CC2)n1` [Compound 299, 2-allyl-6-(1,2-benzisoxazol-6-ylamino)-1-[6-(1-methyl-4-piperidyloxy)-2-pyridyl]-1,2-dihydro-3H-1,2,5,7-tetraazainden-3-one], the results for the IC50 in test [1] and in test [4] were 20 to 100 nM and below 10 nM, respectively. In addition, the EC50 is above 1000 nM in test [2] and 500 to 1000 nM in test [3].

Consider `C=CCn1c(=O)c2cnc(Nc3cccnc3)nc2n1-c1cccc(OC2CCNCC2)n1` [Compound 230, 2-allyl-1-[6-(4-piperidyloxy)-2-pyridyl]-6-(3-pyridylamino)-1,2-dihydro-3H-1,2,5,7-tetraazainden-3-one], for which the IC50 is below 20 nM in test [1] and below 10 nM in test [4]. Also, the EC50 in test [2] and in test [3] was above 1000 nM each time.

With `C=CCn1c(=O)c2cnc(Nc3ccc(N4CCS(=O)(=O)CC4)cc3)nc2n1-c1cccc(OC2CCN(C)CC2)n1` [Compound 369, 4-(p-{2-allyl-1-[6-(1-methyl-4-piperidyloxy)-2-pyridyl]-3-oxo-1,2-dihydro-3H-1,2,5,7-tetraazainden-6-ylamino}phenyl)-1λ^6,4-thiazinane-1,1-dione], the IC50 in test [1] was below 20 nM; in test [4] it was below 10 nM. Besides, the EC50 in test [2] was above 1000 nM; in test [3], below 100 nM.

As to `C=CCn1c(=O)c2cnc(Nc3ccc4oc(C)nc4c3)nc2n1-c1cccc(OC2CCNCC2)n1` [Compound 232, 2-allyl-6-(2-methyl-1,3-benzoxazol-5-ylamino)-1-[6-(4-piperidyloxy)-2-pyridyl]-1,2-dihydro-3H-1,2,5,7-tetraazainden-3-one], the IC50 in test [1] was below 20 nM; in test [4], below 10 nM. Moreover, the results for the EC50 in test [2] and in test [3] were 200 to 500 nM and below 100 nM, respectively.

Turning to `C=CCn1c(=O)c2cnc(Nc3ccc(N4CCSCC4)cc3)nc2n1-c1cccc(OC2CCN(C)CC2)n1` [Compound 261, 2-allyl-1-[6-(1-methyl-4-piperidyloxy)-2-pyridyl]-6-[p-(1,4-thiazinan-4-yl)phenylamino]-1,2-dihydro-3H-1,2,5,7-tetraazainden-3-one], the IC50 in test [1] was below 20 nM; in test [4], below 10 nM. Also, the values for the EC50 (in test [2]; in the test with ACHN cells) were 200 to 500 nM and at most 100 nM, respectively.

As for `C=CCn1c(=O)c2cnc(Nc3ccc4sncc4c3)nc2n1-c1cccc(OC2CCNCC2)n1` [Compound 228, 2-allyl-6-(1,2-benzisothiazol-5-ylamino)-1-[6-(4-piperidyloxy)-2-pyridyl]-1,2-dihydro-3H-1,2,5,7-tetraazainden-3-one], the results for the IC50 in test [1] and in test [4] were below 20 nM and below 10 nM, respectively. Also, the EC50 in test [2] was above 1000 nM; in test [3], 100 to 500 nM.
